Each block holds one compound with its values, some of them ahead of it. Starred links: 1 amine or outer side, 2 acyl side, 3 side chain; linkers in the order of their positions; H or OH if unused. Positions of bridges follow the written chain, without caps; N, C: chain ends. Non-standard residues stand in square brackets, D forms with d. Residues, ends and D or L forms follow the SMILES beside them. X1 = O=C([C@H](CCC/C=C/[*:3])N[*:1])[*:2]; S5 = C=CCCC[C@](C)(N)C(=O)O
Assays:
Estrogen receptor [1] = target: T1, Estrogen receptor (Homo sapiens, UniProt P03372); assay: Binding affinity to recombinant N-terminal His6-tagged ERalpha LBD (unknown origin) (299 to 554 residues) by surface plasmon resonance method
T1 sequence (P03372 whole entry): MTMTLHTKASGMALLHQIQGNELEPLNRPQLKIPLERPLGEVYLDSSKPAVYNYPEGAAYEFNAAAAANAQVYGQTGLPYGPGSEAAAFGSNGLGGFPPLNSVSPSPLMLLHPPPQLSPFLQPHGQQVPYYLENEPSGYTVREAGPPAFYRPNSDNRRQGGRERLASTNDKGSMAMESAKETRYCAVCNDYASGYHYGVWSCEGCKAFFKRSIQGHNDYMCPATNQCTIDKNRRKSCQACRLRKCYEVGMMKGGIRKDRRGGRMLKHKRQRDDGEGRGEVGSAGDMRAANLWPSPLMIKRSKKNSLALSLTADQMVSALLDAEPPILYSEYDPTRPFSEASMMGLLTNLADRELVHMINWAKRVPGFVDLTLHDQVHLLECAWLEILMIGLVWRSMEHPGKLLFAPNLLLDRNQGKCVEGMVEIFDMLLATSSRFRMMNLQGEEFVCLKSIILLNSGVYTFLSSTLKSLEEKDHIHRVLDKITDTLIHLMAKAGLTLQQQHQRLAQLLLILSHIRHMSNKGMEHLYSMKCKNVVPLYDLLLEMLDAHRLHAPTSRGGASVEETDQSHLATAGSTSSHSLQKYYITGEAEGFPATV

[2] = target: T2, Estrogen receptor (Homo sapiens) (UniProt P03372); assay: (§1) Binding affinity to recombinant human ERalpha LBD (301 to 553 residues) expressed in Escherichia coli BL21(DE3) by surface plasmon resonance method
T2 sequence (whole entry): T1 sequence (P03372 whole entry)

Estrogen receptor [3] = target: T1, Estrogen receptor; assay: as §1
Estrogen receptor beta [4] = target: T3, Estrogen receptor beta (Homo sapiens, UniProt Q92731, C334S/C369S/C481S); assay: (§2) Binding affinity to recombinant human ERbeta LBD (259 to 498 residues) C334S/C369S/C481S triple mutant expressed in Escherichia coli BL21(DE3) by surface plasmon resonance method
[5] = tested on: Estrogen receptor beta (Homo sapiens), Q92731 [C334S,C369S,C481S]; assay: as §2
Estrogen receptor [6] = target: T1, Estrogen receptor; assay: Displacement of THC-ketone from human ERalpha LBD (304 to 554 residues) expressed in Escherichia coli BL21(DE3) after 1 hr by fluorescence assay
Estrogen receptor beta [7] = target: Estrogen receptor beta (Homo sapiens, UniProt Q92731); assay: Displacement of FAM-LTERHKILHRLLQEGSPSD from ERbeta (unknown origin) (260 to 502 residues) expressed in Escherichia coli rosetta (DE3) after 1 hr by fluorescence polarization assay
Estrogen receptor [8] = target: T1, Estrogen receptor; assay: Displacement of FAM-LTERHKILHRLLQEGSPSD from ERalpha (unknown origin) (302 to 552 residues) expressed in Escherichia coli rosetta (DE3) after 1 hr by fluorescence polarization assay
Estrogen receptor beta [9] = target: T3, Estrogen receptor beta; assay: Binding affinity to recombinant human ERbeta LBD (259 to 498 residues) C334S/C369S/C481S triple mutant expressed in Escherichia coli BL21(DE3) using FAM-labelled compound after 1 hr by fluorescence polarization method
Estrogen receptor [10] = target: T1, Estrogen receptor; assay: Binding affinity to recombinant human ERalpha LBD (301 to 553 residues) expressed in Escherichia coli BL21(DE3) using FAM-labelled compound after 1 hr by fluorescence polarization method
[11] = Half life in rabbit serum at 100 uM by RP-HPLC method; type: ADME, cell-free, Oryctolagus cuniculus

T3 sequence (Q92731 whole entry C334S/C369S/C481S, the tested form may be a part): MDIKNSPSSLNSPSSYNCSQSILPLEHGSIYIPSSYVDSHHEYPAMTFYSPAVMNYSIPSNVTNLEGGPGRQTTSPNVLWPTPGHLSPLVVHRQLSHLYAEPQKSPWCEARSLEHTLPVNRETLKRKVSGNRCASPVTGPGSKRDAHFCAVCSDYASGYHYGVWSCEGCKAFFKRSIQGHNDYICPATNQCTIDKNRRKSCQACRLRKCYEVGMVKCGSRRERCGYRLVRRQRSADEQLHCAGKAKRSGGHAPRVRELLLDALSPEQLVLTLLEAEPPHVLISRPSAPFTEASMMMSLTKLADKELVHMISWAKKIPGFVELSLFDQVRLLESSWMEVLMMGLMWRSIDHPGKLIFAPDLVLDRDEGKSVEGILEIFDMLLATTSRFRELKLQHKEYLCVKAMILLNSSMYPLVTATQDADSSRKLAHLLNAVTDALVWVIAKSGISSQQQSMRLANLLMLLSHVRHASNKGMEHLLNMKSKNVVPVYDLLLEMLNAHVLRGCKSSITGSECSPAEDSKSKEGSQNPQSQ
Estrogen receptor beta (Homo sapiens, UniProt Q92731), sequence (Q92731 whole entry, the tested form may be a part): as the sequence (Q92731 whole entry C334S/C369S/C481S, the tested form may be a part) above, with S334C, S369C, S481C counted along it
Estrogen receptor beta (Homo sapiens), Q92731 [C334S,C369S,C481S], sequence (Q92731 whole entry C334S/C369S/C481S, the tested form may be a part): as the sequence (Q92731 whole entry C334S/C369S/C481S, the tested form may be a part) above

Compound: CC[C@H](C)[C@H](NC(=O)[C@H](CCCCN)NC(=O)[C@H](Cc1cnc[nH]1)NC(C)=O)C(=O)N[C@@H](CC(C)C)C(=O)N[C@@H](Cc1cnc[nH]1)C(=O)N[C@@H](CCCNC(=N)N)C(=O)N[C@@H](CC(C)C)C(=O)N[C@@H](CC(C)C)C(=O)N[C@@H](CCC(N)=O)C(=O)N[C@@H](CC(=O)O)C(=O)N[C@@H](CO)C(N)=O (Ac-HKILHRLLQDS-NH2)
- Kd (Estrogen receptor [1]): 2600 nM
- Kdiss [2]: 0.347 s⁻¹
- Kd (Estrogen receptor [3]): 2500 nM
- Kd (Estrogen receptor beta [4]): 5000 nM
- Kdiss [5]: 0.376 s⁻¹

Compound: CC(=O)N[C@@H](CCCNC(=N)N)C(=O)N[C@@H](CCCNC(=N)N)C(=O)N[C@@H](CCCNC(=N)N)C(=O)N[C@@H](CCCNC(=N)N)C(=O)N[C@@H](CCCCN)C(=O)N[C@@]1(C)CCC/C=C\CCC[C@@](C)(C(=O)N[C@@H](CC(C)C)C(=O)N[C@@H](CCC(N)=O)C(=O)N[C@@H](CC(=O)O)C(=O)N[C@@H](CO)C(N)=O)NC(=O)[C@H](CCCNC(=N)N)NC(=O)[C@H](Cc2cnc[nH]2)NC(=O)[C@H](CC(C)C)NC1=O (Ac-RRRRK[S5]LHR[S5]LQDS-NH2; staple (Z) 6-10)
- Kd (Estrogen receptor [1]): 19 nM

Compound: CC[C@H](C)[C@H](NC(=O)[C@H](CCCCN)NC(=O)[C@H](Cc1cnc[nH]1)NC(=O)[C@H](CCCNC(=N)N)NC(=O)[C@H](CCC(=O)O)NC(=O)[C@@H](NC(=O)[C@H](CC(C)C)NC(=O)[C@@H](N)CS)[C@@H](C)O)C(=O)N[C@@H](CC(C)C)C(=O)N[C@@H](Cc1cnc[nH]1)C(=O)N[C@@H](CCCNC(=N)N)C(=O)N[C@@H](CC(C)C)C(=O)N[C@@H](CC(C)C)C(=O)N[C@@H](CCC(N)=O)C(=O)N[C@@H](CCC(=O)O)C(N)=O (H-CLTERHKILHRLLQE-NH2)
- Kd (Estrogen receptor [6]): 900 nM

Compound: CC[C@H](C)[C@@H]1NC(=O)[C@@H](NC(=O)[C@H](CCCNC(=N)N)NC(=O)[C@H](CCCCN)NC(=O)[C@@H](N)Cc2c[nH]c3ccccc23)CS/C=C/CCC[C@@H](C(=O)N[C@@H](CC(C)C)C(=O)N[C@@H](CC(C)C)C(=O)N[C@@H](CCC(N)=O)C(=O)N[C@@H](CCC(=O)O)C(N)=O)NC(=O)[C@H](CCCNC(=N)N)NC(=O)[C@H](CC(C)C)NC1=O (H-WKRCILR[X1]LLQE-NH2; thioether 4-8)
- Kd (Estrogen receptor beta [9]): 178 nM
- Kd (Estrogen receptor [10]): 101 nM
- half-life at 100 µM [11]: 18.2 h

Continued, values first:

- Ki (Estrogen receptor beta [7]): 3640 nM
- Ki (Estrogen receptor [8]): 1540 nM
Compound: CSCC[C@H](NC(=O)[C@H](CC(C)C)NC(=O)[C@H](CC(C)C)NC(=O)[C@@H]1CCCN1C(=O)[C@@H](N)Cc1cnc[nH]1)C(=O)N[C@@H](CCCNC(=N)N)C(=O)N[C@@H](CC(C)C)C(=O)N[C@@H](CC(C)C)C(=O)N[C@@H](Cc1cnc[nH]1)C(=O)N[C@@H](Cc1cnc[nH]1)C(=O)N1CCC[C@H]1C(=O)N[C@@H](CO)C(N)=O (H-HPLLMRLLHHPS-NH2)

- Ki (Estrogen receptor beta [7]): 25 nM
- Ki (Estrogen receptor [8]): 185 nM
Compound: CSCC[C@H](NC(=O)[C@H](CC(C)C)NC(=O)[C@H](CC(C)C)NC(=O)[C@@H]1CCCN1C(=O)[C@@H](N)Cc1cnc[nH]1)C(=O)N[C@@H](CCCNC(=N)N)C(=O)N[C@@H](CC(C)C)C(=O)N[C@@H](CC(C)C)C(=O)N[C@@H](CC(C)C)C(=O)N[C@@H](CO)C(=O)N1CCC[C@H]1C(N)=O (H-HPLLMRLLLSP-NH2)
